Assay results as given in ChEMBL document CHEMBL5465560, “Selectivity Literature for EUbOPEN Chemogenomic Library” (2024).

Tests used:
[1] = biological target: Fibroblast growth factor receptor 4 (Homo sapiens, UniProt P22455); test: Selectivity interaction (KinomeScan (DiscoverX)) EUB0000092b FGFR4; details: at 10 µM
[2] = biological target: T1, Tyrosine-protein kinase JAK3 (Homo sapiens) (UniProt P52333); test: Selectivity interaction (ProQinase) EUB0000171b JAK3
T1 sequence (whole entry): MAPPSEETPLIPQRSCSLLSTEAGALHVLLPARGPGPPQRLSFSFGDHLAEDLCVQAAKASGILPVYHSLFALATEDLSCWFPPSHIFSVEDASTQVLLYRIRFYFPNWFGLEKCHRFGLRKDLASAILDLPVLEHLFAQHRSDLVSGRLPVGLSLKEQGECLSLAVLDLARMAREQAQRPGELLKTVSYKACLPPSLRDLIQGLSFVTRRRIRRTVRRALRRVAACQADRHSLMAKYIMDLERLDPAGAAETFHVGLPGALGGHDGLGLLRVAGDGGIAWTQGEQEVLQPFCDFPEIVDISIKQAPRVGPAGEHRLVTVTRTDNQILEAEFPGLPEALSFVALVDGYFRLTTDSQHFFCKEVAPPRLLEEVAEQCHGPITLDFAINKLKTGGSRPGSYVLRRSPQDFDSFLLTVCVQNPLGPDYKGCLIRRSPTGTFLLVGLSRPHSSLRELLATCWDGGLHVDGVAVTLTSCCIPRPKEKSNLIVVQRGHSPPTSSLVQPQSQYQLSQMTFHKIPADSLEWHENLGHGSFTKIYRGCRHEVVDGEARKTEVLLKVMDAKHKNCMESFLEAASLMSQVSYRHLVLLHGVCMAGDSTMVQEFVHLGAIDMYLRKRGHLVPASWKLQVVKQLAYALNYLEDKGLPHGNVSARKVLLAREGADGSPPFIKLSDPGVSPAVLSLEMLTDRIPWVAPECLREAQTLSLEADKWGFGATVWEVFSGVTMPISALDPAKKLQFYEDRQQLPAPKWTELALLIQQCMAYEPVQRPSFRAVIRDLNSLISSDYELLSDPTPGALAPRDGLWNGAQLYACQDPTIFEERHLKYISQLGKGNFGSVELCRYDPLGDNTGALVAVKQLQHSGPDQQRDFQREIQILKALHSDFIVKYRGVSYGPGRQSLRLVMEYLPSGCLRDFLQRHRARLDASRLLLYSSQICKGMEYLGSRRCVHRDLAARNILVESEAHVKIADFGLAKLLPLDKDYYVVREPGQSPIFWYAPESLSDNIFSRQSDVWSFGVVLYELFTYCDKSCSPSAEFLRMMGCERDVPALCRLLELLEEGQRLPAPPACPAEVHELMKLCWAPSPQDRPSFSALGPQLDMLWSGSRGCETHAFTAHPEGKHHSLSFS

[3] = biological target: Myosin light chain kinase, smooth muscle (Homo sapiens, UniProt Q15746); test: Selectivity interaction (LanthaScreen Eu Kinase Binding Assay) EUB0001632a MYLK; details: at 10 µM
[4] = biological target: T2, Serine/threonine-protein kinase greatwall (Homo sapiens) (UniProt Q96GX5); test: Selectivity interaction (ActivX KiNativ screen (kinase selectivity in THP-1 cell lysates)) EUB0000639a MASTL; assay type: subcellular; details: lysate
T2 sequence (whole entry): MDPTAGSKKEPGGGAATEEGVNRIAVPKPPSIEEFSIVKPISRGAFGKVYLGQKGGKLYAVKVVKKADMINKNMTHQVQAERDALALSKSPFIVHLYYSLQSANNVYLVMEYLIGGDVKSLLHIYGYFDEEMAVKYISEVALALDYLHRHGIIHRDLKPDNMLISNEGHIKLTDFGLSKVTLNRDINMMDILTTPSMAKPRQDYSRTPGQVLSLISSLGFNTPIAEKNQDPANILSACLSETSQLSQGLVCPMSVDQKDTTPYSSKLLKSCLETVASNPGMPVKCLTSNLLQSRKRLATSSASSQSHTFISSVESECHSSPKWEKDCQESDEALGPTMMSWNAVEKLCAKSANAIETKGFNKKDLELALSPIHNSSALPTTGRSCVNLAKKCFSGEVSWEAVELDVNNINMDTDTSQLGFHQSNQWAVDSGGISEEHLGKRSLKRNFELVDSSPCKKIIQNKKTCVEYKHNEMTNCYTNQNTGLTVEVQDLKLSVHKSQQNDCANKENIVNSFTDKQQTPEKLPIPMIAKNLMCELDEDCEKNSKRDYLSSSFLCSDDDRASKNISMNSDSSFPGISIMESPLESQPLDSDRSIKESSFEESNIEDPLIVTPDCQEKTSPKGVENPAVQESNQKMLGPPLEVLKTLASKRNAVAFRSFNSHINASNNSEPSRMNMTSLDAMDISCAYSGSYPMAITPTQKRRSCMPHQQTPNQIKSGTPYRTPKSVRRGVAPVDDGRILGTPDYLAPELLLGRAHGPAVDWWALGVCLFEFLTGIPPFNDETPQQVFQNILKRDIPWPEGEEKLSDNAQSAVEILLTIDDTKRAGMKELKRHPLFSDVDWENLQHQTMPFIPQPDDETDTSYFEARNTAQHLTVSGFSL

[5] = biological target: Cyclin-dependent kinase 5 (Homo sapiens, UniProt Q00535); test: Selectivity interaction (KinomeScan (DiscoverX)) EUB0001049a CDK5; details: at 1 µM
[6] = biological target: T3, 3-phosphoinositide-dependent protein kinase 1 (Homo sapiens) (UniProt O15530); details: at 10 µM
T3 sequence (whole entry): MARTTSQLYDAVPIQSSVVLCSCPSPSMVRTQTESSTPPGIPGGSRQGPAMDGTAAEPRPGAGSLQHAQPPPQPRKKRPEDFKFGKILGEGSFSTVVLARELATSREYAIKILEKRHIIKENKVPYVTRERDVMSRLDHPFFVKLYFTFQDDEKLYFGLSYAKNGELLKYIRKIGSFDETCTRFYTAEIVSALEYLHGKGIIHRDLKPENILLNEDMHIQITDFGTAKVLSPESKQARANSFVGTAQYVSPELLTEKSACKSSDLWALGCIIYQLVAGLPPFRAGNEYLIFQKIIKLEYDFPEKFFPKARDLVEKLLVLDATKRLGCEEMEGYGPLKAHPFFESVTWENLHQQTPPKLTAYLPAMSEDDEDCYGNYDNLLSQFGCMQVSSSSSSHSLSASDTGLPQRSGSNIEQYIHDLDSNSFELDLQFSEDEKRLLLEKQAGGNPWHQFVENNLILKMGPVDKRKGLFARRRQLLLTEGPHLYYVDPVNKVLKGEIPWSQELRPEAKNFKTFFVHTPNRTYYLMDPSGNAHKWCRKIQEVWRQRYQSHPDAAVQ

[7] = biological target: cGMP-inhibited 3',5'-cyclic phosphodiesterase 3A (Homo sapiens, UniProt Q14432); test: Selectivity interaction (Eurofins safety panel) EUB0001564a PDE3A; details: at 10 µM
cGMP-inhibited 3',5'-cyclic phosphodiesterase 3A, sequence (Q14432 whole entry): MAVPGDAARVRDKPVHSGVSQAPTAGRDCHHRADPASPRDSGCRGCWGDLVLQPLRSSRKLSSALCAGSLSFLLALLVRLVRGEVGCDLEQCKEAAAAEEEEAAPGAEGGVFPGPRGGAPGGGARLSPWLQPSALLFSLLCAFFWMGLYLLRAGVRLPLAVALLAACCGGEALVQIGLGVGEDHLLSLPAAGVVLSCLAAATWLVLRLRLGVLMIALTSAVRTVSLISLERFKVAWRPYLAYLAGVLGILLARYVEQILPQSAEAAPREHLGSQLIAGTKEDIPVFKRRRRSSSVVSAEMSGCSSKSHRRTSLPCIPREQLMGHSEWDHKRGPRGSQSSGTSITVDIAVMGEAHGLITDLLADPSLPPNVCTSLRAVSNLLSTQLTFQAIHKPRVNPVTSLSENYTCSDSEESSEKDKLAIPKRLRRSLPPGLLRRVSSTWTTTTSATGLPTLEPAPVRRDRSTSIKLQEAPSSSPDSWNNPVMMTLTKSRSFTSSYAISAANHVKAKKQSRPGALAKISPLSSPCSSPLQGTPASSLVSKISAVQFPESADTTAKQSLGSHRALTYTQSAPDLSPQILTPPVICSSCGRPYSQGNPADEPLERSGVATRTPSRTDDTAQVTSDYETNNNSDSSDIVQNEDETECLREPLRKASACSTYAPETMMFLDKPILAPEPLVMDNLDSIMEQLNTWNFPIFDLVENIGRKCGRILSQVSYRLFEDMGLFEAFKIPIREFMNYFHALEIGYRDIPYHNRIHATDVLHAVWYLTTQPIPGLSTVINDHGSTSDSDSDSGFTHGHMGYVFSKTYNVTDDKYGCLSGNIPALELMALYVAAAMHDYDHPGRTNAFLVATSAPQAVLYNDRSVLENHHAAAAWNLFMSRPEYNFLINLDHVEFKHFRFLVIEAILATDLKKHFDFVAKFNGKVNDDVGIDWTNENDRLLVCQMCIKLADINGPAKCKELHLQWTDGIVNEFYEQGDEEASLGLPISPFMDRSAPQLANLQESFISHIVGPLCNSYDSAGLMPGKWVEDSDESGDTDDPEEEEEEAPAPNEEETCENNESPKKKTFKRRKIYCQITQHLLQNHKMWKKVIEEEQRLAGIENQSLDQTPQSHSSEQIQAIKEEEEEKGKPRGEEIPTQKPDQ

Fibroblast growth factor receptor 4, sequence (P22455 22-802 limits assumed): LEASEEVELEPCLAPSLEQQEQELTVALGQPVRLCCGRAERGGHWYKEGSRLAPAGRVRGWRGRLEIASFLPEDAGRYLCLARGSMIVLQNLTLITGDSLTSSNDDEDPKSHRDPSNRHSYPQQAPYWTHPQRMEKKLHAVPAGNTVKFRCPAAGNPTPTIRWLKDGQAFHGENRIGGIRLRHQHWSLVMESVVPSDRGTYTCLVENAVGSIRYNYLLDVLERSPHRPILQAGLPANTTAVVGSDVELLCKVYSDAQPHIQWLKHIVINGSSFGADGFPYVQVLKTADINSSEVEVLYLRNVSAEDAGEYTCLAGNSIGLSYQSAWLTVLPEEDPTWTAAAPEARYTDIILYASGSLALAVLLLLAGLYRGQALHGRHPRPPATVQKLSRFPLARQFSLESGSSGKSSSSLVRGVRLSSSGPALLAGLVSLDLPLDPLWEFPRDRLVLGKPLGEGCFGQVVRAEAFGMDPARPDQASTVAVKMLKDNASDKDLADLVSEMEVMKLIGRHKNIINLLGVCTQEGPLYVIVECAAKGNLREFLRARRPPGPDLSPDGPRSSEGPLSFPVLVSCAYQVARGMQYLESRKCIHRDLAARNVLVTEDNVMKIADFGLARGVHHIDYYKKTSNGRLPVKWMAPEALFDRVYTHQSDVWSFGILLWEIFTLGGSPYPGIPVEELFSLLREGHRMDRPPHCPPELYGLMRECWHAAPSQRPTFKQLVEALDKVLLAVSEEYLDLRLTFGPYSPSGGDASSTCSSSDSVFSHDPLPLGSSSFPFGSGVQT
Myosin light chain kinase, smooth muscle, sequence (Q15746 whole entry): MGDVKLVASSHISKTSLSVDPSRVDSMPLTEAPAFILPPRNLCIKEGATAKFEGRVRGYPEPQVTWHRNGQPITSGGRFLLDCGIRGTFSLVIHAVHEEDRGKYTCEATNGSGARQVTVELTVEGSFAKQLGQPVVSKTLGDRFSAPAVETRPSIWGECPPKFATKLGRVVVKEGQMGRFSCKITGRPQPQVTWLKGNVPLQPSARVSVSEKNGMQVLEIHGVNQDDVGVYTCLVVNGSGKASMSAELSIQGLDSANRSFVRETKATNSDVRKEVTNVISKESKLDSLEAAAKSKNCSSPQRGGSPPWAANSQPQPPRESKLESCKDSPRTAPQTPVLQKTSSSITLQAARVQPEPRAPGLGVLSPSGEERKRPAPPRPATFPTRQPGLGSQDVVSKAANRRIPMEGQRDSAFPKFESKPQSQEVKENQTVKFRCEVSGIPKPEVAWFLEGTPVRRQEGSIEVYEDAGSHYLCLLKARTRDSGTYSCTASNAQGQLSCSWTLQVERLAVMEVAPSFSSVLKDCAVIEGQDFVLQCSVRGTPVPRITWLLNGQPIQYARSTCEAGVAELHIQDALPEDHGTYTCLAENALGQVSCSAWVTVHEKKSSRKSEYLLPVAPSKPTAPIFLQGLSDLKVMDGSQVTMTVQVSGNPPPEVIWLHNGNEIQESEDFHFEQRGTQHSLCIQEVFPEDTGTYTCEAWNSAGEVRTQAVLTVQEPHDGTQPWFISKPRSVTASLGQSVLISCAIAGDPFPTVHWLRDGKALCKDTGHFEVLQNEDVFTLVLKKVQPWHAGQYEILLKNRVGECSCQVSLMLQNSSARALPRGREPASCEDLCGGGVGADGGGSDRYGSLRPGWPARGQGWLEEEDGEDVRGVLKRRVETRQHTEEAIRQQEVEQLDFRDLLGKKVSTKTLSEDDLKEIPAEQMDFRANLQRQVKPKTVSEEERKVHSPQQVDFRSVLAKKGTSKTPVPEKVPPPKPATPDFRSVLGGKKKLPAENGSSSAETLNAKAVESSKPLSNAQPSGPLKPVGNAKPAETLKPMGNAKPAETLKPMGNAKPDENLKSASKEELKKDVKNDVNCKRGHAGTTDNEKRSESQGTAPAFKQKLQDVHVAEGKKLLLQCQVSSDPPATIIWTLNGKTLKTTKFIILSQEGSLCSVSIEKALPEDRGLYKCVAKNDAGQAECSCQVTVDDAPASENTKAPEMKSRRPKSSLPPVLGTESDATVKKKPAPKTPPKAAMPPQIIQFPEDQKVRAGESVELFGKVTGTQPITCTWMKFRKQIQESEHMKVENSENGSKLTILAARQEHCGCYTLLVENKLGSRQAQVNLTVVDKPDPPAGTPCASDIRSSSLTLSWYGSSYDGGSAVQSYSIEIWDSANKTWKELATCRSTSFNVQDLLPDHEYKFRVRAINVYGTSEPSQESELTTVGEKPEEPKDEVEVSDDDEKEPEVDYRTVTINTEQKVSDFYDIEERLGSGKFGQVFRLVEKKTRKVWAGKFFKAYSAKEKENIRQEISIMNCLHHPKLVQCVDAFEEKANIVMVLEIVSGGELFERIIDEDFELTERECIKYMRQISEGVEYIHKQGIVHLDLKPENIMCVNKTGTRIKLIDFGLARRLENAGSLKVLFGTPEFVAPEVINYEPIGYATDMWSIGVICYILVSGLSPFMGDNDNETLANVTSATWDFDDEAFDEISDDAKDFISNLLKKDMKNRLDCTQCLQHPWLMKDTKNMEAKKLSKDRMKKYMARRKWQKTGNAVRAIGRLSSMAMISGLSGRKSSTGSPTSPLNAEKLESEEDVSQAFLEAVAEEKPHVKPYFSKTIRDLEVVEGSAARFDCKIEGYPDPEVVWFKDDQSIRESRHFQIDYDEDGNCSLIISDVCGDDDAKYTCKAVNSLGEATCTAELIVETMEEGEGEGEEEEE
Cyclin-dependent kinase 5, sequence (Q00535 whole entry, looked up): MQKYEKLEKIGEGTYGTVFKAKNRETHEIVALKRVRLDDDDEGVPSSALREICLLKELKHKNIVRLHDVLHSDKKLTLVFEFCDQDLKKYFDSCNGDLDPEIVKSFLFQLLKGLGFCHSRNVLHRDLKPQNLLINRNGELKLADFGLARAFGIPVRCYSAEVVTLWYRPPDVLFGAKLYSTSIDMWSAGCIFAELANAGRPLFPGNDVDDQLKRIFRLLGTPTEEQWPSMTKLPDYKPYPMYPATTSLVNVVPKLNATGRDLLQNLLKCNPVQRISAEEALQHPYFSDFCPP

CCC(=O)N1CCN(c2ccc(-n3c(=O)ccc4cnc5ccc(-c6cnc7ccccc7c6)cc5c43)cc2C(F)(F)F)CC1
% of control [1]: 21%

C=CC(=O)Nc1cccc(C(=O)Nc2ccc(Nc3cc(-c4[nH]c(SC)nc4C)ccn3)cc2)c1
% of control ([2]; at 1 µM): 79%
% of control ([2]; at 5 µM): 54%

Cn1cc(-n2cnc3c(NCc4nc5cc(Cl)c(Cl)cc5[nH]4)nc(N4CCOCC4)nc32)cn1
% of inhibition [3]: -1.03%

CC[C@@H]1[C@H](F)C(=O)N[C@@H]1COc1nccc2cc(C(N)=O)c(OC)cc12 [ZIMLOVISERTIB]
% of inhibition ([4]; at 0.01 µM): -10.8%
% of inhibition ([4]; at 0.04 µM): 0.7%
% of inhibition ([4]; at 0.2 µM): 12.7%
% of inhibition ([4]; at 1 µM): 37.8%
% of inhibition ([4]; at 5 µM): 78.5%

COc1cc(Nc2nc(C)cc(-c3cnn4nc(OC)ccc34)n2)cc(C(F)(F)F)c1
% of control [5]: 89%

COCC(=O)NC/C=C/c1ccc2ncnc(Nc3ccc(Oc4ccc(C)nc4)c(C)c3)c2c1 [CP-724714]
% of control [6]: 100%

CC[C@@H](Nc1c(C#N)c(-c2ccc(-c3cccc(C)c3F)cc2)nc2cnccc12)C(=O)O [BAY-091]
% of inhibition [7]: 74%
